In general, IC50 refers to the midpoint of a concentration-inhibition curve.

The target of the test is CaMKIIδ (Homo sapiens (Human), UniProt Q13557). Nature of the test: radioactive test on the recombinant CaMKIIδ enzyme (ATP-γ33P incorporation into Autocamtide-2). It counts as biochemical. To be noted: recombinant CaMKIIδ 0.37 nM, 10 μM ATP, 100 μM Autocamtide-2, two hours at 37°C. Here is the method: The compounds according to the invention were tested in vitro for their capacity to inhibit the kinase function of calcium/calmodulin-dependent protein kinase II delta (CaMKIIδ). CaMKIIδis an intracellular serine/threonine kinase. It has an enzymatic domain that is capable of using ATP to autophosphorylate. Its kinase function allows it to use ATP to phosphorylate its substrates on the serines and/or threonines. Several enzymatic and cellular tests are used to evaluate the activity of the products with respect to the kinase function of CaMKIIδ. The kinase activity of CaMKIIδis evaluated by means of a radioactive test on the recombinant CaMKIIδenzyme. The amount of ATP-γ33P incorporated into the specific substrate Autocamtide-2 during its phosphorylation by CaMKIIδis measured. The effect of the products is quantified by the concentration of product that inhibits the total activity of CaMKIIδby 50% (50% inhibitory concentration=IC50). For the determination of the IC50 values, the product is diluted in 100% of DMSO to obtain a 10 mM stock solution. The concentration range tested during the radioactive test ranges from 3 to 10 000 nM with a final concentration in the test of 1% DMSO. This concentration range may, for the most powerful compounds, be extended to 0.1 nM. On the day of the operation, 5 μl of the compounds are deposited in each well of a 96-well plate at 10 times the concentration of that to be tested. Each concentration is tested in duplicate on the same plate. The negative controls (0% activity) and positive controls (100% activity) receive 5 μL of 10% DMSO solution. A reaction premix containing the 1×kinase buffer and an ATP-MgCl2 mixture is prepared. Extemporaneously, a mixture containing the substrate Autocamtide-2 (100 μM) with calmodulin and calcium, and the solution of enzyme CaMKIIδ, is added to the premix. 45 μL of this mixture are immediately deposited per well. The final concentrations in the 50 μL final volume are as follows: compound 1X, 0.37 nM of CaMKIIδ(Invitrogen reference PV3373), 10 μM of ATP (1 μCi per well), 100 μM of Autocamtide-2, […] of calmodulin, 15 mM MgCl2, 400 μM CaCl2, 10 mM β-glycerophosphate, and 1% of DMSO. Two negative controls are prepared on each plate, a first without enzyme CaMKIIδ, and a second without substrate Autocamtide-2; these two elements are replaced with water. The plate is then incubated for two hours at 37°C. with gentle shaking. The reaction is stopped by adding 20 μL per well of H3PO4 solution. The 50 μL of each well are transferred onto a Whatman P81 filter. After rinsing twice with H3PO4 (150 μl/well per wash), followed by two rinses with 150 μL of H2O, 50 μL of scintillant are added per well. The amount of phosphorylated substrate is detected by means of a liquid scintillation counter. The inhibitory activity toward CaMKIIδis given by the concentration that inhibits 50% of the activity of CaMKIIδ. The IC50 values are generally between 10 μM and 10^−5 μM. In the table below, the IC50 values measured for several compounds (I) of the invention are presented as examples.
For `CCn1c(N)c(C(N)=O)c(=O)c2cnc(Nc3ccc4c(c3)CCNC4)nc21` [compound 75, 7-Amino-8-ethyl-5-oxo-2-(1,2,3,4-tetrahydroisoquinolin-6-ylamino)-5,8-dihydropyrido[2,3-d]pyrimidine-6-carboxamide], the IC50 was determined as 0.037 µM.

Regarding `CCn1c(N)c(C(N)=O)c(=O)c2cnc(Nc3ccc(OC4CCN(C)CC4)cc3)nc21` [compound 76, 7-Amino-8-ethyl-2-[4-(1-methylpiperid-4-yloxy)phenylamino]-5-oxo-5,8-dihydropyrido[2,3-d]pyrimidine-6-carboxamide], the IC50 was determined as 0.118 µM.

As to `CCn1c(N)c(C(N)=O)c(=O)c2cnc(Nc3cccc(CN(C)C)c3)nc21` [compound 78, 7-Amino-2-(3-dimethylaminomethylphenylamino)-8-ethyl-5-oxo-5,8-dihydropyrido[2,3-d]pyrimidine-6-carboxamide], the IC50 worked out at 0.268 µM.

On to `CCc1cc(N2CCN(C3CC3)CC2)ccc1Nc1ncc2c(=O)c(C(N)=O)c(N)n(CC)c2n1` [compound 96, 7-Amino-2-[4-(4-cyclopropylpiperazin-1-yl)-2-ethylphenylamino]-8-ethyl-5-oxo-5,8-dihydropyrido[2,3-d]pyrimidine-6-carboxamide], for which the IC50 came out at 0.396 µM.

The values are drawn from patent US8975250B2, “5 oxo-5,8-dihydropyrido[2,3-d]pyrimidine derivatives as CaMKII kinase inhibitors for treating cardiovascular diseases” (SANOFI, priority 2010, dated 2015).
